Experimental data published in patent US11793849B2, “Method of Chinese herbal medicine extract used for treating multiple diseases caused by drug resistant bacteria infection” (priority 2016, dated 2023).
Where two headings read alike, the source gives them in different places.

Experiments:
[1] = tested on: MDRAB; test: MIC determination, microdilution broth method; format: cell-based, Acinetobacter baumannii
Description: Determination methods of a Minimal Inhibitory Concentration (MIC) and a Minimum Bactericidal Concentration (MBC) of a test product: the MIC and the MBC of the Pithecellobium clypearia Benth water or ethanol extract to the MDRAB are determined by a microdilution broth method. And it is operated by referring to the microdilution broth method recommended by National Committee for Clinical Laboratory Standards (NCCLS).

[2] = tested on: MDRPA; test: Checkerboard assay (combined-use MIC, FIC); format: cell-based, Pseudomonas aeruginosa; settings: for FIC, all strains / MIC50 of the antibiotic after combined use / MIC90 of the antibiotic after combined use / reduction of the antibiotic's MIC50 vs single use / reduction of the antibiotic's MIC90 vs single use / share of strains with FIC ≤ 0.5: 20 MDRPAs; for combined-use MIC: EA (P. clypearia water extract) combined with LVX
Method in brief: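 Checkerboard combinations of S20b and antibiotic run per NCCLS method against ESBL E. coli, MDR A. baumannii and MDR P. aeruginosa.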

[3] = single use, 20 MDRABs, EA=10% ethanol extract
[4] = single use, 20 MDRABs, EA=water extract
[5] = single use, 20 MDRABs, section of the 95% ethanol extract
[6] = antibiotic with 10% ethanol extract
[7] = antibiotic with 60% ethanol extract
[8] = antibiotic with 95% ethanol extract
[9] = antibiotic with EA (water extract)

C[C@H]1COc2c(N3CCN(C)CC3)c(F)cc3c(=O)c(C(=O)O)cn1c23 [LVX, Levofloxacin]
1 µg/mL: MIC50 of the antibiotic after combined use [2, 6] | MIC50 of the antibiotic after combined use [2, 7] | MIC50 of the antibiotic after combined use [2, 8] | MIC50 of the antibiotic after combined use [2, 9] | combined-use MIC ([2]; strain P11) | combined-use MIC ([2]; strain P13) | combined-use MIC ([2]; strain P14) | combined-use MIC ([2]; strain P15) | combined-use MIC ([2]; strain P20)
0.03125 µg/mL: combined-use MIC ([2]; strain P2) | combined-use MIC ([2]; strain P3) | combined-use MIC ([2]; strain P5) | combined-use MIC ([2]; strain P6) | combined-use MIC ([2]; strain P7) | combined-use MIC ([2]; strain P8)
≤ 2: FIC, all strains [2, 6] | FIC, all strains [2, 8] | FIC, all strains [2, 9]
32 µg/mL: MIC90 ([1]; Acinetobacter baumannii, single use, 20 MDRABs, section of the 60% ethanol extract, read-out: MIC90) | MIC90 ([1]; MDRABs, EA=60% ethanol extract) | MIC90 ([1]; MDRABs, EA=95% ethanol extract) | MIC90 [1, 3] | MIC90 [1, 4] | MIC90 [1, 5] | combined-use MIC ([2]; strain P10)
0.5 µg/mL: combined-use MIC ([2]; strain P12)
15%: share of strains with FIC ≤ 0.5 [2, 6] | share of strains with FIC ≤ 0.5 [2, 9]
16 µg/mL: MIC ([1]; Acinetobacter baumannii, strain A17, EA=95% ethanol extract, read-out: MIC) | MIC ([1]; Acinetobacter baumannii, strain A17, EA=P. clypearia 95% ethanol extract, read-out: single-use MIC) | MIC ([1]; Acinetobacter baumannii, strain A17, single use, EA=10% ethanol extract, read-out: MIC) | MIC ([1]; Acinetobacter baumannii, strain A17, single use, EA=water extract, read-out: MIC) | MIC ([1]; Acinetobacter baumannii, strain A19, EA=60% ethanol extract, read-out: MIC) | MIC ([1]; Acinetobacter baumannii, strain A19, EA=95% ethanol extract, read-out: MIC) | MIC ([1]; Acinetobacter baumannii, strain A19, EA=P. clypearia 95% ethanol extract, read-out: single-use MIC) | MIC ([1]; Acinetobacter baumannii, strain A19, single use, EA=10% ethanol extract, read-out: MIC) | MIC ([1]; Acinetobacter baumannii, strain A19, single use, EA=water extract, read-out: MIC) | MIC ([1]; Acinetobacter baumannii, strain A20, EA=60% ethanol extract, read-out: MIC) | MIC ([1]; Acinetobacter baumannii, strain A20, EA=95% ethanol extract, read-out: MIC) | MIC ([1]; Acinetobacter baumannii, strain A20, EA=P. clypearia 95% ethanol extract, read-out: single-use MIC) | MIC ([1]; Acinetobacter baumannii, strain A20, single use, EA=10% ethanol extract, read-out: MIC) | MIC ([1]; Acinetobacter baumannii, strain A20, single use, EA=water extract, read-out: MIC)
8 µg/mL: MIC ([1]; Acinetobacter baumannii, strain A18, EA=60% ethanol extract, read-out: MIC) | MIC ([1]; Acinetobacter baumannii, strain A18, EA=95% ethanol extract, read-out: MIC) | MIC ([1]; Acinetobacter baumannii, strain A18, EA=P. clypearia 95% ethanol extract, read-out: single-use MIC) | MIC ([1]; Acinetobacter baumannii, strain A18, single use, EA=10% ethanol extract, read-out: MIC) | MIC ([1]; Acinetobacter baumannii, strain A18, single use, EA=water extract, read-out: MIC) | MIC50 ([1]; Acinetobacter baumannii, single use, 20 MDRABs, section of the 60% ethanol extract, read-out: MIC50) | MIC50 ([1]; MDRABs, EA=60% ethanol extract) | MIC50 ([1]; MDRABs, EA=95% ethanol extract) | MIC50 [1, 3] | MIC50 [1, 4] | MIC50 [1, 5] | MIC90 of the antibiotic after combined use [2, 7] | MIC90 of the antibiotic after combined use [2, 9] | combined-use MIC ([2]; strain P18)
10%: share of strains with FIC ≤ 0.5 [2, 7] | share of strains with FIC ≤ 0.5 [2, 8]
2 µg/mL: combined-use MIC ([2]; strain P9) | combined-use MIC ([2]; strain P16)
87.5%: reduction of the antibiotic's MIC90 vs single use [2, 6] | reduction of the antibiotic's MIC90 vs single use [2, 8]
0.5 to 32 µg/mL: MIC Range ([1]; MDRABs, EA=60% ethanol extract) | MIC Range ([1]; MDRABs, EA=95% ethanol extract) | MIC Range [1, 3] | MIC Range [1, 4]
4 µg/mL: MIC ([1]; Acinetobacter baumannii, strain AS, EA=P. clypearia 95% ethanol extract, read-out: single-use MIC) | MIC90 of the antibiotic after combined use [2, 6] | MIC90 of the antibiotic after combined use [2, 8] | combined-use MIC ([2]; strain P1) | combined-use MIC ([2]; strain P4) | combined-use MIC ([2]; strain P17) | combined-use MIC ([2]; strain P19)
75%: reduction of the antibiotic's MIC50 vs single use [2, 6] | reduction of the antibiotic's MIC50 vs single use [2, 7] | reduction of the antibiotic's MIC90 vs single use [2, 7] | reduction of the antibiotic's MIC50 vs single use [2, 8] | reduction of the antibiotic's MIC50 vs single use [2, 9] | reduction of the antibiotic's MIC90 vs single use [2, 9]
